This is an account of results in US20140088063A1, “AGENTS FOR TREATING NEURODEGENERATIVE DISORDERS” (priority 2010, published 2014).

Marks after values point to notes of the source that are not given here.

Data set [1] concerns C57BL/6J mice. The data set can be described thus: Learned helplessness test (compound of formula I′). Format: in vivo. As to the method:
As explained above, the learned helplessness test in mice is the well-known animal model to determine antidepressant efficacy of compounds. Basically when animals learned to be helpless are given antidepressant drugs, they unlearn helplessness and start exerting control over their environment. Antidepressant activity of compounds was assessed by estimating latency time as a period in which animal is not trying to escape from stress (see Table 3). […]

Data set [2] relates to C57BL/6J mice. Nature of the data set: Toxicity test, median lethal dose after intraperitoneal injection. Format: in vivo. As to the method:
Toxicity to mammals was measured after intraperitoneal injections of compounds of formula I to C57BL/6J mice. Median lethal dose (LD50) was calculated as described previously (see table 1).

Data set [3] concerns C57BL/6J mice. Nature of the data set: Learned helplessness test (compounds of formula I). The class given is in vivo. The following applies: percent of control (non-treated animals) taken as 100%; for Latency time, % 1/3 LD50: i.p. dose 1/3 of LD50; for Latency time, % 1/13 LD50: i.p. dose 1/13 of LD50. The protocol: The learned helplessness test in mice is the well-known animal model to determine antidepressant efficacy of compounds. Basically when animals learned to be helpless are given antidepressant drugs, they unlearn helplessness and start exerting control over their environment.
The C57BL/6J mice were treated intraperitoneally with compounds of formula I intraperitoneally at dose corresponding to ⅓ or 1/13 of lethal dose, then antidepressant activity of compounds was assessed by estimating latency time as a period in which animal is not trying to escape from stress (see Table 1).

Data set [4] concerns C57BL/6J mice. Nature of the data set: Black and white box test (light-dark test). Format: in vivo. As to conditions: entries to the light zone; i.p.; percent of control (non-treated animals) taken as 100%. The text has this:
The black and white test (also named light-dark test) is based on the conflict of natural tendencies of rodents to avoid lighted and open areas and to explore novel environments. Relative time spent in exploring each compartment indicates the anxiety level of the animal: Avoidance of the brightly lit area is considered reflecting “anxiety-like” behaviors. When treated with anxiolytic drugs, rodents spend more time in this area, an effect purportedly due to a decrease in anxiety.
The C57BL/6J mice were treated intraperitoneally with compound of the invention, then anxiolytic efficacy of compounds of formula I was assessed by estimating the number of entries to the light zone (see Table 1).

Data set [5] has as its system male white rats. The data set can be described thus: Behavioral despair test (forced swimming). The class given is in vivo. As to conditions: 3 h. As to the method:
This behavior reflects a state of despair which can be reduced by several agents which are therapeutically effective in human depression.
The male white rats (250-280 g) were treated intraperitoneally according to procedure described below. The animals were divided into five groups of ten rats and treated as follows. The rats of first group were used as controls. They were injected intraperitoneally with distilled water 24 h, 3 h, 40 minutes before the experiment. Second group was treated with Compound I′ at a dose 100 mg/kg i.p. 24 h, 3 h, 40 minutes before the experiment. Third group was treated with Amitriptyline at a dose 10 mg/kg i.p. using the same regimen as in groups above.
The antidepressant activity was assessed by estimating immobility time as a period in which animal remains immobile during swimming (see Table 2). Statistical data processing was performed using “BioStat” tool for Windows.

Data set [6] concerns male white rats. The data set can be described thus: Modified behavioral despair test (water wheel). Format: in vivo. As to conditions: 3 h. As to the method:
Nomura et al. (1982) published a modification of the despair swim test in mice involving small water wheel set in a water tank. Mice placed on this apparatus turned the wheel vigorously but when they abandoned attempts to escape from the water, the wheel stopped turning. Antidepressant activity of compounds was assessed by counting the number of rotations of the water wheel (see Table 4).
The male white rats (250-280 g) were treated intraperitoneally according to procedure described below. The animals were divided into five groups of ten rats and treated as follows. The rats of first group were used as controls. They were injected intraperitoneally with distilled water 24 h, 3 h, 40 minutes before the experiment. Second group was treated with Compound Ia at a dose 100 mg/kg i.p. 24 h, 3 h, 40 minutes before the experiment. Third group was treated with Amitriptyline at a dose 10 mg/kg i.p. using the same regimen as in groups above.
The antidepressant activity was assessed by estimating immobility time as a period in which animal remains immobile during swimming (see Table 4). Statistical data processing was performed using “BioStat” tool for Windows.

For data set [7] the following is noted: acute toxicity, known antidepressants for comparison; cited from earlier work.
Where [8] appears, read: 10 mg/kg i.p. 24 h, 40 minutes before the experiment (Fluoxetin as powder).
The mark [9] stands for this setting: 90 mg/kg i.p. once daily, 2 days course.
[10] abbreviates: 90 mg/kg i.p. once daily, 6 days course.
Where [11] appears, read: 90 mg/kg i.p. once daily, 12 days course.
Setting [12] is: 100 mg/kg i.p. 24 h, 40 minutes before the experiment.
The mark [13] stands for this setting: 100 mg/kg i.p. three times 24 h, 40 min before experiment.

In the case of `CN(C)CCCN1c2ccccc2CCc2ccccc21` [melipramine], the “Latency time” value is reported as 13.5 ± 1.8 s with C57BL/6J mice [1] (7 mg/kg i.p., 2 days course); 11.8 ± 1.5 s in the data set on C57BL/6J mice [1] (7 mg/kg i.p., 6 days course); 9.2 ± 1.1 s in the data set with C57BL/6J mice [1] (7 mg/kg i.p., 12 days course). Further, the Non-escaping animals, % in the data set on C57BL/6J mice [1] (7 mg/kg i.p., 2 days course) is reported as 43%; with C57BL/6J mice [1] (7 mg/kg i.p., 6 days course), 29%; with C57BL/6J mice [1] (7 mg/kg i.p., 12 days course), 11* %.

Take `Cc1ccc2c(c1)c1c3n2CCNC3CCC1` (centres unmarked) [pirazidole]: the “Latency time” value with C57BL/6J mice [1] (10 mg/kg i.p., 2 days course) was 13.6 ± 1.1 s; in the data set with C57BL/6J mice [1] (10 mg/kg i.p., 6 days course) it was 10.0 ± 1.4 s; with C57BL/6J mice [1] (10 mg/kg i.p., 12 days course) it was 8.3 ± 0.7 s. Also, the Non-escaping animals, % in the data set with C57BL/6J mice [1] (10 mg/kg i.p., 2 days course) is recorded as 39%; in the data set on C57BL/6J mice [1] (10 mg/kg i.p., 6 days course), 18%; in the data set on C57BL/6J mice [1] (10 mg/kg i.p., 12 days course), 14* %.

On to `CC1(C)NN1CCCCN1NC1(C)C` [Ic, meso-1S,2S,1′R,2′R-1-[4-(3,3-dimethyldiaziridin-1-yl)butyl]-3,3-dimethyldiaziridine], for which, in the data set on C57BL/6J mice [2], the LD50 (usually the dose expected to kill half of the subjects tested) came to 1000 mg/kg. Moreover, in the data set on C57BL/6J mice [3], the “Latency time, % 1/3 LD50” value was 188** % and the “Latency time, % 1/13 LD50” value came out at 104%. Further, in the data set with C57BL/6J mice [4], the “Number of entries, %” value is recorded as 62** %.

In the case of `CNCCC(Oc1ccc(C(F)(F)F)cc1)c1ccccc1` (centres unmarked) [Fluoxetin], the “Immobility time” value was determined as 337.45 ± 36.69 s in the data set with male white rats [5] (setting [8]) and 218.45 ± 38.87 s in the data set on male white rats [5] (20 mg/kg 24 h, 40 minutes before the experiment (Fluoxetin as tablet)). Also, in the data set on male white rats [6] (setting [8]), the Rotation number worked out at 108.34 ± 53.96.

Regarding `CC1(C)NN1CCN1NC12CCCCC2` [Ie, meso-1S,2S,1′R,2′R-1-[2-(3,3-dimethyldiaziridin-1-yl)ethyl]-1,2-diazaspiro[2.5]octane], the “LD50” value with C57BL/6J mice [2] was 1125 mg/kg. Moreover, in the data set with C57BL/6J mice [3], the “Latency time, % 1/3 LD50” value is on record as 62** % and the “Latency time, % 1/13 LD50” value is on record as 74** %. Besides, the “Number of entries, %” value in the data set on C57BL/6J mice [4] is listed as 75** %.

As for `C1CCC2(C1)NN2CCN1NC12CCCC2` [If, meso-1S,2S,1′R,2′R-1-[2-(1,2-diazaspiro[2.4]hept-1-yl)ethyl]-1,2-diazaspiro[2.4]heptane], the “LD50” value with C57BL/6J mice [2] was found to be 1150 mg/kg. In the data set with C57BL/6J mice [3], the “Latency time, % 1/3 LD50” value is on record as 95% and the “Latency time, % 1/13 LD50” value is given as 94%. The “Number of entries, %” value in the data set on C57BL/6J mice [4] was 60** %.

Take `C1CCC2(CC1)NN2CCN1NC12CCCCC2` [Ia, meso-1S,2S,1′R,2′R-1-[2-(1,2-diazaspiro[2.5]oct-1-yl)ethyl]-1,2-diazaspiro[2.5]octane]: in the data set on C57BL/6J mice [1] (setting [9]), the “Latency time” value is recorded as 13.6 ± 1.1 s and the Non-escaping animals, % is 18** %. Besides, in the data set on C57BL/6J mice [1] (setting [10]), the “Latency time” value came to 7.5 ± 0.9 s and the “Non-escaping animals, %” value is reported as 12** %. Also, in the data set on C57BL/6J mice [1] (setting [11]), the “Latency time” value is recorded as 6.2 ± 0.5 s and the “Non-escaping animals, %” value is given as 1.4** %. Moreover, the “effect of single doses in learned helplessness test” value in the data set on C57BL/6J mice [1] (single dose) is given as “not effective”. Moreover, the “LD50” value in the data set with C57BL/6J mice [2] was determined as 611 mg/kg. Further, in the data set on C57BL/6J mice [3], the “Latency time, % 1/3 LD50” value is listed as 56** % and the “Latency time, % 1/13 LD50” value was 72** %. The “Number of entries, %” value in the data set on C57BL/6J mice [4] was 56** %.

On to `CN(C)CCC=C1c2ccccc2CCc2ccccc21` [Amitriptyline, reference compound], for which the “Immobility time” value with male white rats [5] (setting [8]) is on record as 145.62 ± 45.39 s. This molecule registered a Rotation number with male white rats [6] (setting [8]) of 165.93 ± 35.41.

`[H][N@]1[N@@](CC[N@@]2[N@]([H])C2(C)C)C1(C)C` [I′, meso-1S,2S,1′R,2′R-1-[2-(3,3-dimethyldiaziridin-1-yl)ethyl]-3,3-dimethyldiaziridine]: in the data set on C57BL/6J mice [1] (90 mg/kg i.p. once daily, earlier than for comparative drugs), the “time after which antidepressive effect was observed” value is reported as 2 days. For the same molecule, the “Immobility time” value with male white rats [5] (setting [12]) was 291.55 ± 43.94 s. Moreover, the “antidepressant activity (behavioral despair test)” value in the data set with male white rats [5] (setting [13]) was “significant antidepressant activity”. In addition, the Rotation number in the data set on male white rats [6] (setting [12]) was 156.48 ± 26.79. In addition, in the data set with male white rats [6] (setting [13]), the “antidepressant activity (modified behavioral despair test)” value is on record as “significant antidepressant activity”.

On to `CN(C)CCCC1(c2ccc(F)cc2)OCc2cc(C#N)ccc21` (centres unmarked) [cypramile], for which, in data set [7], the LD50 is listed as 1.7 mg/kg.

Turning to `O=C(CCNNC(=O)c1ccncc1)NCc1ccccc1` [Nyalamidum], in data set [7], the LD50 was 820 mg/kg.
